Results reported in US8367644B2, “Methods and compounds useful to induce apoptosis in cancer cells” (The Burnham Institute, priority 2003, dated 2013).
Read-outs that look alike come from different tables or passages of the source. One block for each molecule: values may come before it.

What was measured:
[1] = test system: MCF7 cell line (high expressor of Bcl-2/Bcl-xL); assay: XTT dye reduction cell viability assay, MCF7
Protocol: (§1) To evaluate the cytotoxic activity of our compounds on human tumors cells, we tested their biological activities using XTT dye reduction assays using two breast cancer cell lines: MCF7 (high expressor of Bcl-2/Bcl-xL) and ZR75-1 (low expressor of Bcl-2/Bcl-xL).
The effects of the compounds studied in this paper on viability of tumor cells in culture were monitored by using XTT (Weislow et al., J. Natl. Cancer Inst., 81:577 (1989)) assays with MCF7 and ZR75-1 cell lines. MCF7 cells were grown in DMEM containing 10% fetal bovine serum, penicillin/streptomycin, supplemented with 10^−10 M insulin, 1 mM sodium pyruvate and glutamine. ZR75-1 cells were grown in RPMI containing 10% fetal bovine serum, penicillin/streptomycin, supplemented with HEPES buffer, 1 mM sodium pyruvate and glutamine. Cells were regularly tested for mycoplasma contamination. Cells were seeded triplicates at an initial cell density of 1,000 cells per well. Blank wells received no cells. […] Relative numbers of viable cells was determined by XTT assay. […] Then, the contents of each plate were mixed and optical densities were determined at a wavelength of 450 nm (OD450). Net OD450 was determined after subtracting OD450 of blank wells. […]

[2] = test system: ZR75-1 cell line (low expressor of Bcl-2/Bcl-xL); assay: XTT dye reduction cell viability assay, ZR75-1; conditions: ZR75-1, XTT; for IC50: read-out: IC50, cell viability, three days
Protocol: as §1
(§2) The effects of the compounds studied in this paper on viability of tumor cells in culture were monitored by using XTT (Weislow et al., J. Natl. Cancer Inst., 81:577 (1989)) assays with MCF7 and ZR75-1 cell lines. MCF7 cells were grown in DMEM containing 10% fetal bovine serum, penicillin/streptomycin, supplemented with 10^−10 M insulin, 1 mM sodium pyruvate and glutamine. ZR75-1 cells were grown in RPMI containing 10% fetal bovine serum, penicillin/streptomycin, supplemented with HEPES buffer, 1 mM sodium pyruvate and glutamine. Cells were regularly tested for mycoplasma contamination. Cells were seeded triplicates at an initial cell density of 1,000 cells per well. Blank wells received no cells. […] Relative numbers of viable cells was determined by XTT assay. Briefly, in a 96-well plate, we added 50 μl of a mixture of 1 mg/ml of XTT (Weislow et al., J. Natl. Cancer Inst., 81:577 (1989)) (2,3-bis(2-methoxy-4-nitro-5-sulfophenyl)-5-[(phenylamino)carbonyl]-2H-tetrazolium hydroxide) (Polysciences, Washington, Pa.) containing 0.025 mM PMS (phenazine methosulfate) to each well. The 96-well plates were re-incubated for an additional 4 hours to allow for XTT formazan production. Then, the contents of each plate were mixed and optical densities were determined at a wavelength of 450 nm (OD450). Net OD450 was determined after subtracting OD450 of blank wells. Low-passage HeLa cells (between passage number 10 and 20) were transfected with pcDNA3-Bcl-xL or control pcDNA3 plasmids using Lipofectamine Plus reagent (Invitrogen) and selected in medium containing 800 μg/ml of G418. Immunoblot analysis of Bcl-xL was accomplished as described (Krajanski 1996-Cancer Res) HeLa-transfectants were treated with various doses of Gossypol, Purpurogallin, and its derivatives (0, 1, 3, 10 and 100 μM).

Bcl-xL = target: T1, Bcl-xL (Homo sapiens, UniProt Q07817); assay: Fluorescence polarization-based competitive binding assay (FPA) with fluorescein-labeled Bad peptide
T1 construct: made in house
Protocol: FPA assays were conducted with a fluorescein-labeled Bad peptide ([sequence]-K(FITC)-FVD) (SEQ ID NO:1) (Synpep Corporation, Dublin, Calif.) using a LJL Analyst HT (Molecular Devices Co., Sunnyvale, Calif.). Dilution buffer for all stocks and samples was 50 mM Tris-Bis pH 7.4, 0.01% bovine gamma globulin. A series of two-fold dilutions of Gossypol were prepared, i.e., 100 μM, 50 μM, down to 0.1 μM in dilution buffer. To each tube was added a solution containing 30 nM of Bcl-xL and 4 nM fluoresceinated peptide. The tubes were incubated for 5 minutes at room temperature and 20 μl each of reaction mixture was transferred to 96-well black PS, HE Microplate (LJL Biosystems Co.). All assays were performed in quadruplicate, with blank wells receiving no Gossypol. Then, the plate was read for total intensity and polarization (in mP units) was measured. Controls included dose-responses measurements in absence of the proteins, to assess any interactions between the compounds and the FITC-BH3 peptide. Eventual effects were taken into account by subtraction.

[3] = previous cell-based assays; cited from earlier work
[4] = Combination of Apogossypol with fludarabine (FIG. 6, 7); assay type: cell-based
HeLa cells = HeLa cells viability assay; assay type: cell-based; conditions: Homo sapiens, read-out: IC50 (μM) HeLa
Protocol: as §1, §2

[5] = Table 1, green tea extracts, target Bcl-xL inferred from text and figure legends, read-out: IC50
[6] = Table 4, Purpurogallin derivatives, read-out: IC50 (μM) (Bcl-xL)
[7] = Table 2, black tea extracts, target Bcl-xL inferred from text and figure legends, read-out: IC50

T1 sequence (Q07817 whole entry): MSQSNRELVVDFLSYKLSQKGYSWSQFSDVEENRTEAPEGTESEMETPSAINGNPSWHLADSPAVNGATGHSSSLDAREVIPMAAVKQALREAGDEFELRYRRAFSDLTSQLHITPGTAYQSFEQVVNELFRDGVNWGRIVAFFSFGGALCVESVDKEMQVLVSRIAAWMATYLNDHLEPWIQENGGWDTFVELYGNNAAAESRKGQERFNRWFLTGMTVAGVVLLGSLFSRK

SMILES: Cc1cc2c(C(C)C)c(O)c(O)c(C=O)c2c(O)c1-c1c(C)cc2c(C(C)C)c(O)c(O)c(C=O)c2c1O (racemic) [Gossypol]
IC50 ([1]; read-out: IC50, cell viability, three days): 13.2 µM
IC50 [2]: 8.4 µM

SMILES: O=C(O[C@@H]1Cc2c(O)cc(O)cc2O[C@H]1c1ccc(O)c(O)c1)c1cc(O)c(O)c(O)c1 [(−) Catechin-3-gallate (CG), (−) Catechin-3-gallate]
IC50 (Bcl-xL; [5]): 0.29 µM

SMILES: O=C(O[C@@H]1Cc2c(O)cc(O)cc2O[C@@H]1c1ccc(O)c(O)c1)c1cc(O)c(O)c(O)c1 [(−) Epicatechin-3-gallate (ECG), (−) Epicatechin-3-gallate]
IC50 (Bcl-xL; [5]): 0.24 µM

SMILES: Oc1cc(O)c2c(c1)O[C@H](c1cc(O)c(O)c(O)c1)[C@H](O)C2 [(−) Epigallocatechin (EGC), (−) Epigallocatechin]
IC50 (Bcl-xL; [5]): > 100 µM

SMILES: O=C(O[C@@H]1Cc2c(O)cc(O)cc2O[C@@H]1c1cc(O)c(O)c(O)c1)c1cc(O)c(O)c(O)c1 [(−) Epigallocatechin-3-gallate (EGCG), (−) Epigallocatechin-3-gallate]
IC50 (Bcl-xL; [5]): 0.98 µM

SMILES: Oc1cc(O)c2c(c1)O[C@@H](c1cc(O)c(O)c(O)c1)[C@H](O)C2 [(−) Gallocatechin (GC), (−) Gallocatechin]
IC50 (Bcl-xL; [5]): > 100 µM

SMILES: O=C(O[C@@H]1Cc2c(O)cc(O)cc2O[C@H]1c1cc(O)c(O)c(O)c1)c1cc(O)c(O)c(O)c1 [(−) Gallocatechin-3-gallate (GCG), (−) Gallocatechin-3-gallate]
IC50 (Bcl-xL; [5]): 0.63 µM

SMILES: Cc1cc2c(C(C)C)c(O)c(O)c(C=O)c2c(O)c1-c1c(C)cc2c(C(C)C)c(O)c(O)c(C=O)c2c1O [(−) Gossypol]
effectiveness as a cytotoxic agent relative to (+) Gossypol [3]: ten times more effective than (+) Gossypol

SMILES: Cc1cc2c(C(C)C)c(O)c(O)cc2c(O)c1-c1c(C)cc2c(C(C)C)c(O)c(O)cc2c1O [Apogossypol (6C1), Apogossypol]
effect in combination with fludarabine (F-ara-A) ([4]; FIG. 6): additive effect
effect in combination with F-ara-A ([4]; FIG. 7): synergistic Effect

SMILES: COc1cc2cccc(OC)c(=O)c2c(OC)c1OC [Compound 6A1]
IC50 (Bcl-xL; [6]): > 100 µM
IC50 (HeLa cells; Table 4, HeLa cells viability): > 100 µM

SMILES: COc1c(O)cc2cccc(OC)c(=O)c2c1OC [Compound 6A7]
IC50 (Bcl-xL): > 100 µM
IC50 (HeLa cells; HeLa): > 100 µM

SMILES: O=c1c(O)cccc2c([C@H]3Oc4cc(O)cc(O)c4C[C@H]3O)cc(O)c(O)c12 [Theaflavanin]
IC50 (Bcl-xL; [7]): 0.55 µM

SMILES: O=C(O[C@H]1Cc2c(O)cc(O)cc2OC1c1cc(O)c(=O)c2c(O)c(O)cc([C@H]3Oc4cc(O)cc(O)c4C[C@H]3O)c2c1)c1cc(O)c(O)c(O)c1 (stereo partly drawn) [Theaflavin-3′-gallate]
IC50 (Bcl-xL; [7]): 0.6 µM

SMILES: O=c1c(O)cc([C@H]2Oc3cc(O)cc(O)c3C[C@H]2O)cc2c([C@H]3Oc4cc(O)cc(O)c4C[C@H]3O)cc(O)c(O)c12 [Theaflavin]
IC50 (Bcl-xL; [7]): 1.05 µM

Continued, in another order:

IC50 (Bcl-xL; [5]): > 100 µM
SMILES: Oc1cc(O)c2c(c1)O[C@@H](c1ccc(O)c(O)c1)[C@@H](O)C2 [(+) Epicatechin (EC), (+) Epicatechin]

IC50 (Bcl-xL; [5]): > 100 µM
SMILES: Oc1cc(O)c2c(c1)O[C@@H](c1ccc(O)c(O)c1)[C@H](O)C2 [(−) Catechin (C), (−) Catechin]

IC50 (Bcl-xL; [6]): 73 µM
IC50 (HeLa cells; Table 4, HeLa cells viability): 51.5 µM
SMILES: CCOC(=O)c1cc(O)c(=O)c2cc(O)c(O)cc2c1 [Compound 5D1]
IC50 [2]: ~50 µM

IC50 (Bcl-xL; [6]): 7.4 µM
IC50 (HeLa cells; Table 4, HeLa cells viability): 22.9 µM
SMILES: O=C(O)c1cc(O)c(=O)c2cc(O)c(O)cc2c1 [Compound 1142]

IC50 (Bcl-xL; [6]): 2.6 µM
SMILES: COC(=O)c1cc(O)c(=O)c2cc(O)c(O)cc2c1 [Compound 1163]

IC50 (HeLa cells; Table 4, HeLa cells viability): 6.5 µM
SMILES: O=c1c(O)cccc2cc(O)c(O)c(O)c12 [Purpurogallin]
competition for the BH3-binding pocket (Bcl-xL; FIG. 1 legend): compete for the BH3-binding pocket of Bcl-xL
cytotoxic activity [1]: did not show appreciable activity
cytotoxic activity [2]: did not show appreciable activity
